The text below walks through data of patent US20250054582A1, “METHOD OF IDENTIFYING A SOLVENT FOR A MATRIKINE” (THE BOOTS COMPANY PLC, priority 2021, published 2025).

Peptide text beside a SMILES is read from it.

The nature of data set [1]: HSPiP analysis: Hansen Solubility Sphere of the matrikine from solubility scores. In kind it is physicochemical. Also on record: δD / δP: unit not given here. As to conditions: for δD / δH / δP: Hansen Solubility Parameter of the peptide; for δD / δH / δP / R (Size of HSP Sphere): overall results summary; for δD value / δH value: in words, HSPiP fit of solubility scores; for radius: radius of the HSP sphere. On the procedure:
(§1) The HSP sphere of seven different matrikines was determined by using a range of reference solvents (solvents with known HSP spheres) to dissolve the matrikines. The reference solvents were then ranked based on their ability to dissolve the matrikines. A software package called Hansen Solubility Parameters in Practice (HSPiP) was then used to determine the HSPs of each of the matrikines.
The use of qualitative rankings of solubility phenomena makes it possible to define a spheroidal cluster in which the most compatible samples are contained.
The scores from 1 to 6 were entered into the HSPiP data form and then the software analyses the data to produce a Hansen diagram of the solubility sphere, alongside details of the solubility parameters and the goodness of the fit of the data to the sphere, in text format.

The nature of data set [2]: Qualitative solubility ranking of matrikines in reference solvents. Format: physicochemical. On the procedure: as §1
In general, a set of around 20 standard reference solvents was used to carry out preliminary investigations in solubility tests. Following this, additional/fine-tuning (FT) solvents were selected and used to are used to optimise the reliability and definition of the solubility parameters of the matrikines.
All samples were prepared under standard conditions, within an air-conditioned laboratory environment, at 20° C. and a standard pressure.
Usually, samples are prepared on the Formax High-throughput Formulation System, manufactured by Chemspeed. However due to the small sample size, the samples of this project were prepared manually using a single channel pipette for liquids and an analytical balance for solids.
Qualitative evaluation of the solubility of the matrikines within a range of different reference solvents was used. Samples were placed into six categories, according to the relative extent to which the matrikine dissolved in the solvent.
Between these two extremes sit the other four ranking-categories, whose typical descriptions can be found in table 1 below.

Data set [3] in a line: Franz cell skin explant penetration with 3D OrbiSIMS analysis. Format: in vitro ADME, human. On the procedure:
For ex vivo analysis, full thickness human skin tissue was removed during cosmetic surgery from Caucasian female donors (aged 35-70). The explant was frozen immediately post-surgery, shipped and stored at −20° C. prior to use.
The tissue was then defrosted, cut and mounted, dermal side down, in a Franz-type static diffusion cell set-up (Franz, 1975), with an exposed surface area of 1.1 cm^2. Infinite doses of the cosmetic formulations were applied to the donor chamber, with the explant exposed to the formulations for 1 hour in a water bath set to 36.5° C. Sink conditions were maintained throughout the experiments.
After 1 hour, the Franz cell was dismantled, excess formulation was removed with a dry sponge and the skin explant was wiped with a sponge soaked in Teepol Solution (3% v/v). Next, the explant was dehydrated under vacuum at room temperature for 24 hours before 3D OrbiSIMS analysis […]
A 20 KeV Ar3000+ analysis beam with a diameter of 20 μm was used as the primary ion source. Samples were analysed at ambient temperature across a 400×400 μm area in positive polarity with sawtooth raster mode and a total crater size of 486×486 μm. […] Mass spectra were recorded at a resolution of 240,000 at m/z 200 in the mass range of 75 to 1,125 m/z. […]

[4] abbreviates: blend Glycerol Carbonate:Dimethyl Formamide:1-Propanol 55:25:20%.

As to `CCCCCCCCCCCCCCCC(=O)N[C@@H](CCC(=O)O)C(=O)N[C@@H](CCCCN)C(=O)NCC(=O)N[C@@H](CC(=O)O)C(=O)O` [Pal-EKGD] (HELM PEPTIDE1{[CCCCCCCCCCCCCCCC(=O)[*:2]].E.K.G.D}$$$$V2.0), in data set [1], the “greatest contribution to the cohesive energy density” value (“greatest contribution” below) was “Dispersion forces”, the δD turned out to be 17.31, the δH turned out to be 17.26 and the δP came out at 13.92. In addition, in data set [1], the δD value result is recorded as “moderate”, the δH value entry was “moderate”, the R (Size of HSP Sphere) is 10.3 MPa^0.5 and the radius is recorded as 10.3 units.

On to `CCCCCCCCCCCCCCCC(=O)NCC(=O)N[C@@H](Cc1c[nH]cn1)C(=O)N[C@@H](CCCCN)C(=O)O` [Pal-GHK, N-Palmitoyl-Gly-His-Lys] (HELM PEPTIDE1{[CCCCCCCCCCCCCCCC(=O)[*:2]].G.H.K}$$$$V2.0), for which the “solubility over the reference solvents tested (in words)” value in data set [2] is “No samples showed complete dissolution”. In data set [3] (formulation containing methyl gluceth-20 compared to glycerin only, 1 hour), the “penetration into the skin tissues” value is recorded as “penetrated quicker”. Besides, the “Pal-GHK peptide ion intensity in skin explant” value in data set [3] (formulation with glycerin+methyl gluceth-20 versus glycerin only, 1 hour in Franz cell, 3D OrbiSIMS) was “more peptide ion present”. In data set [1], the “greatest contribution” value was “Dispersion forces”, the δD was found to be 17.83, the δH is 11.22 and the δP stood at 6.57. In addition, in data set [1], the δD value entry was “moderate”, the δH value result is recorded as “low”, the R (Size of HSP Sphere) is 3.5 MPa^0.5 and the radius was determined as 3.5 units.

For `CCCCCCCCCCCCCCCC(=O)NCC(=O)N1CCC[C@H]1C(=O)N[C@@H](CCCCN)C(=O)NCC(=O)O` [Pal-GPKG] (HELM PEPTIDE1{[CCCCCCCCCCCCCCCC(=O)[*:2]].G.P.K.G}$$$$V2.0), in data set [2] (blend Propylene Carbonate:Propylene Glycol 65:35%), the “dissolution (in words)” value was “did not dissolve”. Further, the “dissolution (in words)” value in data set [2] (blend Propylene Glycol Monomethyl Ether:Propylene Carbonate 55:45%) is on record as “did not dissolve”. Also, in data set [1], the “greatest contribution” value is on record as “Dispersion forces”, the δD was 17.82, the δH came to 17.73 and the δP was 10.55. Further, in data set [1], the δD value result was “moderate”, the δH value result is “moderate”, the R (Size of HSP Sphere) stood at 8.3 MPa^0.5 and the radius was 8.3 units.

As to `CCCCCCCCCCCCCCCC(=O)NCC(=O)N[C@@H](CCC(N)=O)C(=O)N1CCC[C@H]1C(=O)N[C@@H](CCCNC(=N)N)C(=O)O` [Pal-GQPR, N-palmitoyl-Gly-Gln-Pro-Arg] (HELM PEPTIDE1{[CCCCCCCCCCCCCCCC(=O)[*:2]].G.Q.P.R}$$$$V2.0), the “dissolution (in words)” value was “did not dissolve” in data set [2] (blend Benzyl Alcohol:2-Propanol 80:20%), “did not dissolve” in data set [2] (setting [4]), “most interaction with the product without complete dissolution” in data set [2] (solvent 2-PhenoxyEthanol) and “complete dissolution” in data set [2] (solvent N-Methyl Formamide).

`CCCCCCCCCCCCCCCC(=O)N[C@@H](CC(C)C)C(=O)N[C@@H](CO)C(=O)N[C@H](C(=O)N[C@@H](CC(=O)O)C(=O)O)C(C)C` [Pal-LSVD] (HELM PEPTIDE1{[CCCCCCCCCCCCCCCC(=O)[*:2]].L.S.V.D}$$$$V2.0): in data set [2], the “solubility over the reference solvents tested (in words)” value is “very limited solubility”. Moreover, in data set [1], the “greatest contribution” value is “Dispersion forces”, the δD is 18.84, the δH came out at 14.82 and the δP stood at 12.04. Also, in data set [1], the δD value result is “high”, the δH value result is listed as “low”, the R (Size of HSP Sphere) turned out to be 6.8 MPa^0.5 and the radius was 6.8 units.

`CCCCCCCCCCCCCCCC(=O)N[C@@H](CCC(N)=O)C(=O)N[C@H](C(=O)N[C@@H](C)C(=O)N[C@H](C(=O)O)C(C)C)[C@@H](C)O` [Pal-QTAV] (HELM PEPTIDE1{[CCCCCCCCCCCCCCCC(=O)[*:2]].Q.T.A.V}$$$$V2.0): the “dissolution (in words)” value in data set [2] (setting [4]) is “didn't dissolve”. In data set [1], the “greatest contribution” value is on record as “Dispersion forces”, the δD was found to be 17.61, the δH is listed as 10.95 and the δP stood at 10.66. In data set [1], the δD value entry was “moderate”, the δH value result was “low”, the R (Size of HSP Sphere) came out at 6 MPa^0.5 and the radius is 6 units.
